Measured values reported in paper PMC4336611 (Chemistry & biology, 2015).

Target: LPA2 (Homo sapiens, UniProt Q9HBW0)
Format: cell-based

LPA2, sequence (Q9HBW0 whole entry): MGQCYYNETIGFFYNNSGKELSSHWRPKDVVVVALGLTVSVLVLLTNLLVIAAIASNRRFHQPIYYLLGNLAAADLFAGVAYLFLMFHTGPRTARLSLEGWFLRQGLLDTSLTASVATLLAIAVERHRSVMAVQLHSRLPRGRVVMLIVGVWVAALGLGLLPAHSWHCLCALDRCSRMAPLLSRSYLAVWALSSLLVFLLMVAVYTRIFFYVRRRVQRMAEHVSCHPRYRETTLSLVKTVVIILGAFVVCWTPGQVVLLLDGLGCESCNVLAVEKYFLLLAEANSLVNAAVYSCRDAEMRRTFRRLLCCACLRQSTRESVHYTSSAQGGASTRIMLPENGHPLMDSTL

EC50: ~100 nM
Compound: O=C(O)c1ccccc1S(=O)(=O)NCCCCN1C(=O)c2cccc3cccc(c23)C1=O [DBIBB, 2-[4-(1,3-Dioxo-1H,3H-benzo[de]isoquinolin-2-yl)butylsulfamoyl] benzoic acid]
